Values of other authors, collected in US8471030B2, “Purification of montelukast using simulated moving bed” (Orochem Technologies Inc., priority 2010, dated 2013).

SMILES: CC(C)(O)c1ccccc1CC[C@@H](SCC1(CC(=O)O)CC1)c1cccc(/C=C/c2ccc3ccc(Cl)cc3n2)c1 [Montelukast]
- stability in acidic solutions (acidic solutions): degrade rapidly
- stability in solution when exposed to light (in solution, exposed to light, forms the Montelukast-cis isomer): unstable when exposed to light
